Values joined by “and” are separate entries in the source; they are usually repeats but may differ in a detail not shown here. Equal values may be shown once.
Legend:
[1] = for Normal melting temperature: DTA
[2] = Molar enthalpy of transition or fusion; conditions: Crystal; DSC

c1c[nH]cn1 [1H-imidazole]
[1]
Conditions	vapor or sublimation pressure [kPa]
303.99 K, Crystal, Closed cell (Static) method	0.00058
306.97 K, Crystal, Closed cell (Static) method	0.00079
309.99 K, Crystal, Closed cell (Static) method	0.00108
312.98 K, Crystal, Closed cell (Static) method	0.00145
315.94 K, Crystal, Closed cell (Static) method	0.00195
318.92 K, Crystal, Closed cell (Static) method	0.00263
321.97 K, Crystal, Closed cell (Static) method	0.0035
324.96 K, Crystal, Closed cell (Static) method	0.00469
327.95 K, Crystal, Closed cell (Static) method	0.00621
330.92 K, Crystal, Closed cell (Static) method	0.00819
333.9 K, Crystal, Closed cell (Static) method	0.01063
333.9 K, Metastable liquid, Closed cell (Static) method	0.01485
336.88 K, Crystal, Closed cell (Static) method	0.01377
336.89 K, Metastable liquid, Closed cell (Static) method	0.01859
339.86 K, Crystal, Closed cell (Static) method	0.01782
339.86 K, Metastable liquid, Closed cell (Static) method	0.02311
342.84 K, Crystal, Closed cell (Static) method	0.02289
342.84 K, Metastable liquid, Closed cell (Static) method	0.02848
345.81 K, Metastable liquid, Closed cell (Static) method	0.03509
345.83 K, Crystal, Closed cell (Static) method	0.02923
348.8 K, Crystal, Closed cell (Static) method	0.03701
348.8 K, Metastable liquid, Closed cell (Static) method	0.04297
351.75 K, Metastable liquid, Closed cell (Static) method	0.05222
351.77 K, Crystal, Closed cell (Static) method	0.04693
354.75 K, Crystal, Closed cell (Static) method	0.0592
354.76 K, Metastable liquid, Closed cell (Static) method	0.06354
357.72 K, Crystal, Closed cell (Static) method	0.07394
357.72 K, Metastable liquid, Closed cell (Static) method	0.07682
360.69 K, Metastable liquid, Closed cell (Static) method	0.09288
363.67 K, Closed cell (Static) method, Liquid	0.1112
366.66 K, Closed cell (Static) method, Liquid	0.1336
369.63 K, Closed cell (Static) method, Liquid	0.1596
372.6 K, Closed cell (Static) method, Liquid	0.1912
375.56 K, Closed cell (Static) method, Liquid	0.2249
378.51 K, Closed cell (Static) method, Liquid	0.2655
381.51 K, Closed cell (Static) method, Liquid	0.3134
384.48 K, Closed cell (Static) method, Liquid	0.3688

Conditions	Normal melting temperature [°C]
[1], Crystal	86.2

Conditions	Molar enthalpy of transition or fusion [kcal/mol]
[2]	3.13

N#Cc1nc[nH]c1C#N [4,5-dicyanoimidazole]
[1], Crystal, Calculated from knudsen effusion weight loss
Conditions	vapor or sublimation pressure
383.16 K	0.000153 kPa and 0.00015 kPa
385.16 K	0.000182 kPa and 0.000184 kPa and 0.000183 kPa
387.12 K	0.000223 kPa and 0.000222 kPa
389.16 K	0.000267 kPa and 0.000264 kPa
391.16 K	0.000325 kPa
393.12 K	0.000386 kPa and 0.000383 kPa and 0.000389 kPa
395.16 K	0.000462 kPa and 0.000464 kPa
397.16 K	0.000556 kPa
399.14 K	0.000668 kPa and 0.000664 kPa and 0.000666 kPa
401.16 K	0.000791 kPa and 0.000782 kPa and 0.000796 kPa
403.15 K	0.000954 kPa and 0.000931 kPa and 0.000932 kPa

Conditions	Normal melting temperature [°C]
[1], Crystal	176

Conditions	Molar enthalpy of transition or fusion [kcal/mol]
[2]	5.4

Cn1cnc(C#N)c1C#N [1-methyl-1H-imidazole-4,5-dicarbonitrile]
[1]
Conditions	vapor or sublimation pressure [kPa]
337.86 K, Crystal, Closed cell (Static) method	0.00034
339.38 K, Crystal, Closed cell (Static) method	0.00039
340.86 K, Crystal, Closed cell (Static) method	0.00046
342.35 K, Crystal, Closed cell (Static) method	0.00053
343.84 K, Crystal, Closed cell (Static) method	0.00061
345.33 K, Crystal, Closed cell (Static) method	0.0007
346.81 K, Crystal, Closed cell (Static) method	0.00082
348.31 K, Crystal, Closed cell (Static) method	0.00094
349.78 K, Crystal, Closed cell (Static) method	0.00107
351.29 K, Crystal, Closed cell (Static) method	0.00124
352.76 K, Crystal, Closed cell (Static) method	0.00142
354.26 K, Crystal, Closed cell (Static) method	0.00163
355.73 K, Crystal, Closed cell (Static) method	0.00186
355.76 K, Metastable liquid, Closed cell (Static) method	0.00198
357.23 K, Crystal, Closed cell (Static) method	0.00212
357.23 K, Metastable liquid, Closed cell (Static) method	0.00221
358.72 K, Crystal, Closed cell (Static) method	0.00242
358.77 K, Metastable liquid, Closed cell (Static) method	0.00249
360.71 K, Metastable liquid, Closed cell (Static) method	0.00284
362.59 K, Closed cell (Static) method, Liquid	0.0033
364.68 K, Closed cell (Static) method, Liquid	0.00381
366.64 K, Closed cell (Static) method, Liquid	0.0044
368.64 K, Closed cell (Static) method, Liquid	0.00506
370.6 K, Closed cell (Static) method, Liquid	0.00584
372.61 K, Closed cell (Static) method, Liquid	0.0067
374.56 K, Closed cell (Static) method, Liquid	0.00765
376.58 K, Closed cell (Static) method, Liquid	0.00875
378.53 K, Closed cell (Static) method, Liquid	0.01
380.52 K, Closed cell (Static) method, Liquid	0.01138
382.49 K, Closed cell (Static) method, Liquid	0.01298
384.5 K, Closed cell (Static) method, Liquid	0.01474
386.44 K, Closed cell (Static) method, Liquid	0.01668
388.45 K, Closed cell (Static) method, Liquid	0.01889
390.43 K, Closed cell (Static) method, Liquid	0.02143
392.4 K, Closed cell (Static) method, Liquid	0.0241
394.36 K, Closed cell (Static) method, Liquid	0.02715
396.35 K, Closed cell (Static) method, Liquid	0.0304
398.31 K, Closed cell (Static) method, Liquid	0.03419
400.31 K, Closed cell (Static) method, Liquid	0.03815
402.27 K, Closed cell (Static) method, Liquid	0.04273
404.27 K, Closed cell (Static) method, Liquid	0.04766
406.23 K, Closed cell (Static) method, Liquid	0.05325

Conditions	Normal melting temperature [°C]
[1], Crystal	87.1

Conditions	Molar enthalpy of transition or fusion [kcal/mol]
[2]	3.54

Clc1nc[nH]c1Cl [4,5-dichloroimidazole]
[1], Crystal, Closed cell (Static) method
Conditions	vapor or sublimation pressure
337.91 K	0.00048 kPa
339.87 K	0.00059 kPa
341.87 K	0.00072 kPa
341.88 K	0.00071 kPa
343.83 K	0.00086 kPa
345.84 K	0.00104 kPa
345.85 K	0.00104 kPa
347.81 K	0.00125 kPa
349.81 K	0.00148 kPa and 0.00151 kPa
351.78 K	0.0018 kPa
355.75 K	0.00258 kPa
357.73 K	0.00306 kPa
359.72 K	0.00366 kPa
361.71 K	0.00434 kPa
363.69 K	0.00513 kPa
365.67 K	0.00607 kPa
367.66 K	0.00722 kPa
369.64 K	0.00841 kPa
371.62 K	0.00998 kPa
373.6 K	0.01172 kPa
375.6 K	0.01368 kPa
377.56 K	0.01597 kPa
379.54 K	0.0184 kPa
381.52 K	0.02175 kPa
383.45 K	0.02487 kPa
385.49 K	0.02923 kPa
387.38 K	0.03334 kPa
389.45 K	0.03896 kPa
391.33 K	0.04433 kPa
393.4 K	0.05168 kPa
395.37 K	0.0589 kPa

Conditions	Normal melting temperature [°C]
[1], Crystal	183.6

Conditions	Molar enthalpy of transition or fusion [kcal/mol]
[2]	4.21

Cn1cnc(Cl)c1Cl [4,5-dichloro-1-methyl-1H-imidazole]
[1]
Conditions	vapor or sublimation pressure [kPa]
288.03 K, Crystal, Closed cell (Static) method	0.00048
290.06 K, Crystal, Closed cell (Static) method	0.0006
292.08 K, Crystal, Closed cell (Static) method	0.00076
294.06 K, Crystal, Closed cell (Static) method	0.00096
296.06 K, Crystal, Closed cell (Static) method	0.0012
298.04 K, Crystal, Closed cell (Static) method	0.00149
300.05 K, Crystal, Closed cell (Static) method	0.00185
302.01 K, Crystal, Closed cell (Static) method	0.00231
303.99 K, Crystal, Closed cell (Static) method	0.00286
306.02 K, Crystal, Closed cell (Static) method	0.00352
307.96 K, Crystal, Closed cell (Static) method	0.0043
309.97 K, Crystal, Closed cell (Static) method	0.00527
311.98 K, Crystal, Closed cell (Static) method	0.00646
313.95 K, Crystal, Closed cell (Static) method	0.00782
315.93 K, Crystal, Closed cell (Static) method	0.00957
317.91 K, Crystal, Closed cell (Static) method	0.01164
319.99 K, Crystal, Closed cell (Static) method	0.01413
322 K, Crystal, Closed cell (Static) method	0.01693
323.97 K, Crystal, Closed cell (Static) method	0.02049
325.97 K, Crystal, Closed cell (Static) method	0.02463
329.93 K, Metastable liquid, Closed cell (Static) method	0.03434
331.93 K, Closed cell (Static) method, Liquid	0.03936
333.9 K, Closed cell (Static) method, Liquid	0.04506
335.89 K, Closed cell (Static) method, Liquid	0.05151
337.88 K, Closed cell (Static) method, Liquid	0.05882
339.87 K, Closed cell (Static) method, Liquid	0.06701
341.86 K, Closed cell (Static) method, Liquid	0.07636
343.84 K, Closed cell (Static) method, Liquid	0.08631
345.82 K, Closed cell (Static) method, Liquid	0.09809
347.8 K, Closed cell (Static) method, Liquid	0.1106
349.78 K, Closed cell (Static) method, Liquid	0.1248

Conditions	Normal melting temperature [°C]
[1], Crystal	57.0

Conditions	Molar enthalpy of transition or fusion [kcal/mol]
[2]	4.06

Cn1ccnc1 [1-methylimidazole]
[1]
Conditions	vapor or sublimation pressure [kPa]
255.52 K, Crystal, Closed cell (Static) method	0.00122
256.47 K, Metastable liquid, Closed cell (Static) method	0.00184
256.5 K, Crystal, Closed cell (Static) method	0.00139
257.48 K, Crystal, Closed cell (Static) method	0.00157
257.48 K, Metastable liquid, Closed cell (Static) method	0.00204
258.55 K, Metastable liquid, Closed cell (Static) method	0.00226
258.57 K, Crystal, Closed cell (Static) method	0.00177
259.5 K, Metastable liquid, Closed cell (Static) method	0.00249
259.53 K, Crystal, Closed cell (Static) method	0.00201
260.46 K, Metastable liquid, Closed cell (Static) method	0.00273
260.48 K, Crystal, Closed cell (Static) method	0.00225
261.42 K, Metastable liquid, Closed cell (Static) method	0.00301
261.45 K, Crystal, Closed cell (Static) method	0.00255
262.38 K, Metastable liquid, Closed cell (Static) method	0.0033
262.41 K, Crystal, Closed cell (Static) method	0.00277
263.36 K, Metastable liquid, Closed cell (Static) method	0.00362
263.37 K, Crystal, Closed cell (Static) method	0.00317
264.36 K, Crystal, Closed cell (Static) method	0.00356
265.16 K, Metastable liquid, Closed cell (Static) method	0.00425
265.35 K, Crystal, Closed cell (Static) method	0.004
267.28 K, Metastable liquid, Closed cell (Static) method	0.00515
269.27 K, Metastable liquid, Closed cell (Static) method	0.00618
271.23 K, Closed cell (Static) method, Liquid	0.00739
273.22 K, Closed cell (Static) method, Liquid	0.00866
275.16 K, Closed cell (Static) method, Liquid	0.01042
277.18 K, Closed cell (Static) method, Liquid	0.01215
281.14 K, Closed cell (Static) method, Liquid	0.01675
285.09 K, Closed cell (Static) method, Liquid	0.02306
287.07 K, Closed cell (Static) method, Liquid	0.02725
289.06 K, Closed cell (Static) method, Liquid	0.03146
291.04 K, Closed cell (Static) method, Liquid	0.03655
293.04 K, Closed cell (Static) method, Liquid	0.04224
295.03 K, Closed cell (Static) method, Liquid	0.049
297.03 K, Closed cell (Static) method, Liquid	0.05608
298.98 K, Closed cell (Static) method, Liquid	0.06498
300.98 K, Closed cell (Static) method, Liquid	0.07451
302.96 K, Closed cell (Static) method, Liquid	0.0852
304.98 K, Closed cell (Static) method, Liquid	0.09635

Conditions	Normal melting temperature [°C]
[1], Crystal	-4.5

Conditions	Molar enthalpy of transition or fusion [kcal/mol]
[2]	2.94

From the NIST ThermoML archive (doi:10.1016/j.jct.2011.08.017)
